Measured values reported in the kinase profiling compilation of Christmann-Franck et al. (2016).

Assays:
Test in all cases: radiometric filter-binding kinase assay
[1] = target: HIPK3 (human) (UniProt Q9H422)
[2] = target: MAPK1 (human) (UniProt P28482)
[3] = target: BRSK2 (human) (UniProt Q8IWQ3)
[4] = target: PAK6 (human) (UniProt Q9NQU5)
[5] = target: PRKCA (human) (UniProt P17252)
[6] = target: CDK2 CCNA2 (human) (UniProt P20248+P24941)
[7] = target: CHEK2 (human) (UniProt O96017)
[8] = target: MARK3 (human) (UniProt P27448)
[9] = target: MAPK3 (human) (UniProt P27361)
[10] = target: STK3 (human) (UniProt Q13188)
[11] = target: CHEK1 (human) (UniProt O14757)
CHEK1 (human), sequence (O14757 whole entry, looked up): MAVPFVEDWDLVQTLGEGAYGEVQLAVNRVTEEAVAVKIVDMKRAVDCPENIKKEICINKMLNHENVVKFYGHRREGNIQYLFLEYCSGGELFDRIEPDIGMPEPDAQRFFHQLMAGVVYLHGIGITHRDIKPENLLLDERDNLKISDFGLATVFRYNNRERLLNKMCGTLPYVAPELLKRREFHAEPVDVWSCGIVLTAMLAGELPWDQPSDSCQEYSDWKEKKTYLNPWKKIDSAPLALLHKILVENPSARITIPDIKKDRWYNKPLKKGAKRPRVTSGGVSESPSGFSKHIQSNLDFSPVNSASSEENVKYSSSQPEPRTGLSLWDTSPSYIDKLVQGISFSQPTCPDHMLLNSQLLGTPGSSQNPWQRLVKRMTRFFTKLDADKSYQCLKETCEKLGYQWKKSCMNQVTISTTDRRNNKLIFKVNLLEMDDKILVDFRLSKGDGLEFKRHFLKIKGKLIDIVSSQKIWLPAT

[12] = test system: SGK1 (human), O00141 [S422D]
SGK1 (human), O00141 [S422D], sequence (O00141 whole entry S422D, looked up): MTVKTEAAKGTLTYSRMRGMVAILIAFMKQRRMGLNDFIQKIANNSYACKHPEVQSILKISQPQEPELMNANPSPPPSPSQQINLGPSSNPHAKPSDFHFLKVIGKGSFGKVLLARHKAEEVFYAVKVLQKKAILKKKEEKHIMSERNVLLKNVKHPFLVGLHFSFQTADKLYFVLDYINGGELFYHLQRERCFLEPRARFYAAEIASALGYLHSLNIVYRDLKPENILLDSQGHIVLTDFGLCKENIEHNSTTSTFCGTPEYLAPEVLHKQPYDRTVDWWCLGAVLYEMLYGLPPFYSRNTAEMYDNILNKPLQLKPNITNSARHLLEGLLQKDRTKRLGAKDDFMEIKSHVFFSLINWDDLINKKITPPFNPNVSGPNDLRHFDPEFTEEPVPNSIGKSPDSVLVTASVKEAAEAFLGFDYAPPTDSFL

[13] = target: RPS6KA1 KD1 KD2 (human) (UniProt Q15418)
[14] = target: PRKCZ (human) (UniProt Q05513)
[15] = target: SRC (human) (UniProt P12931)
SRC (human), sequence (P12931 whole entry, looked up): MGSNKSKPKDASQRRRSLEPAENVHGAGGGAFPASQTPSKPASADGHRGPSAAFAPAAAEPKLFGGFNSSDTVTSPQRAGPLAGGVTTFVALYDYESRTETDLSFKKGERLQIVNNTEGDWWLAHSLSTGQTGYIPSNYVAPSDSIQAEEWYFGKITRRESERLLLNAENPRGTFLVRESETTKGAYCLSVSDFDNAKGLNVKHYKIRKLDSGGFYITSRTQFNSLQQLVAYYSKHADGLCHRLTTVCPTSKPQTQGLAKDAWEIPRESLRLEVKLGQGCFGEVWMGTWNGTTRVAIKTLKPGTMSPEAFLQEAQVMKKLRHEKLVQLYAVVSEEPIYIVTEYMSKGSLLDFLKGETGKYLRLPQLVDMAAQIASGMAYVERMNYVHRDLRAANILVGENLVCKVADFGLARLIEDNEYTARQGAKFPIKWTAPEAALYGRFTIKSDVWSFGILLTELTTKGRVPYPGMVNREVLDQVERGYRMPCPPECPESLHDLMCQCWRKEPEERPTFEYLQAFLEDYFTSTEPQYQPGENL

[16] = target: RPS6KA5 KD1 KD2 (human) (UniProt O75582)
RPS6KA5 KD1 KD2 (human), sequence (O75582 whole entry, looked up): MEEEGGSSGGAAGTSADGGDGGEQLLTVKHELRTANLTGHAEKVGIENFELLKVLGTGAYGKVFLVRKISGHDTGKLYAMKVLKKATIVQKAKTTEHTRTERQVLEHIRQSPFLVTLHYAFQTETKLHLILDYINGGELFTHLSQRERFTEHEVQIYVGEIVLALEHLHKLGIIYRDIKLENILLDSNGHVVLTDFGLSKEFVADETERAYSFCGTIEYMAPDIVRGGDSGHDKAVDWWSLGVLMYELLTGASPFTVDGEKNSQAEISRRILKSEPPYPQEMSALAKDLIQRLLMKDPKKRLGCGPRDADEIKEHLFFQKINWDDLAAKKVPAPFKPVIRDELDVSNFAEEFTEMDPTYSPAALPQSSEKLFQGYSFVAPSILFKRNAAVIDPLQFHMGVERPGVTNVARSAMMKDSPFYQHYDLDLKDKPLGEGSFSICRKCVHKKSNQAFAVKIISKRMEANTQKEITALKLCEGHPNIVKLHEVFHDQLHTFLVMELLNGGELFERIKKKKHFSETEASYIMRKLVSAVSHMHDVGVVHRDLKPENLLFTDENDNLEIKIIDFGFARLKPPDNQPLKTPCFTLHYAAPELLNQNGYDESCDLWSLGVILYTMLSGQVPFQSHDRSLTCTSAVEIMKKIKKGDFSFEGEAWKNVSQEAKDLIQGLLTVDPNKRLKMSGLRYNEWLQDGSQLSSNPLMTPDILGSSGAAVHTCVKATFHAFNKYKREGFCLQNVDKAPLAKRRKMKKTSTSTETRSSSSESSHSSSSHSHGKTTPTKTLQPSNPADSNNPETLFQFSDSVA

[17] = target: RPS6KA3 KD1 KD2 (human) (UniProt P51812)
RPS6KA3 KD1 KD2 (human), sequence (P51812 whole entry, looked up): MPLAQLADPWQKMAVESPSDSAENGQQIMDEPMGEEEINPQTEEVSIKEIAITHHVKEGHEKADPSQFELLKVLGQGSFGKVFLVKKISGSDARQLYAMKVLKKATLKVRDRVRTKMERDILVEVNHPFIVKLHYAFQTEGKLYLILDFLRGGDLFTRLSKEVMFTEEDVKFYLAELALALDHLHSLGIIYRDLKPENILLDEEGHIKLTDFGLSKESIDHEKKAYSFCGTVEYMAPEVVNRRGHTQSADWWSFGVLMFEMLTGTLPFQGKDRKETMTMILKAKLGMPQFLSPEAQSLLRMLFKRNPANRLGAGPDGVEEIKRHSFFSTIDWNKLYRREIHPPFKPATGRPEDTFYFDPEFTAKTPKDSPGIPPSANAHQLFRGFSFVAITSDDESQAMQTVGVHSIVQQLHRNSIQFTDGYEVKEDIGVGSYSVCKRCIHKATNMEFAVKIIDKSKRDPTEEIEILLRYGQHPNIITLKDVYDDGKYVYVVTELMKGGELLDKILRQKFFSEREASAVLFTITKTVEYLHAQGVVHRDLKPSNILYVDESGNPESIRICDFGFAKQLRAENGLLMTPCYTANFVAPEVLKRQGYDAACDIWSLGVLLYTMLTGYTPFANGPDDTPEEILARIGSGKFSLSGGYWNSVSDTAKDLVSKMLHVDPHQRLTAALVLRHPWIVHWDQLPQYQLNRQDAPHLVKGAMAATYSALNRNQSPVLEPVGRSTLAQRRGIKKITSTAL

[18] = target: PLK1 (human) (UniProt P53350)
PLK1 (human), sequence (P53350 whole entry, looked up): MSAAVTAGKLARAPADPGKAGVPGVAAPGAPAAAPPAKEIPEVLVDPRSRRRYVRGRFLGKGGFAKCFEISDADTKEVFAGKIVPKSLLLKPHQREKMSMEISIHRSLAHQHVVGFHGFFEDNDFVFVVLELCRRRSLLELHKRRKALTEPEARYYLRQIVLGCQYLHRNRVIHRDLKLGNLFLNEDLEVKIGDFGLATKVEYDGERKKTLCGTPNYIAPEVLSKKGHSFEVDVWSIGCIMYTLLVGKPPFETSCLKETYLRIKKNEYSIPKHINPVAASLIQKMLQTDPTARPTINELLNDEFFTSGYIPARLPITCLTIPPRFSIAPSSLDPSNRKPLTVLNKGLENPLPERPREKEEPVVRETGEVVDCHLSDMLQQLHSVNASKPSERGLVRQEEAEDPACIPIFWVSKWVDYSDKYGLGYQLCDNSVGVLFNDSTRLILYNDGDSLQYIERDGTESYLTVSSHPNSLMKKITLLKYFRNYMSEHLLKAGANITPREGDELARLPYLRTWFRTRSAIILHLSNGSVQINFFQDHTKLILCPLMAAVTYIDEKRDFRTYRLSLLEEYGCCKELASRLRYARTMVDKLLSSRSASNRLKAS

[19] = target: EEF2K (human) (UniProt O00418)

PAK6 (human), sequence (Q9NQU5 whole entry, looked up): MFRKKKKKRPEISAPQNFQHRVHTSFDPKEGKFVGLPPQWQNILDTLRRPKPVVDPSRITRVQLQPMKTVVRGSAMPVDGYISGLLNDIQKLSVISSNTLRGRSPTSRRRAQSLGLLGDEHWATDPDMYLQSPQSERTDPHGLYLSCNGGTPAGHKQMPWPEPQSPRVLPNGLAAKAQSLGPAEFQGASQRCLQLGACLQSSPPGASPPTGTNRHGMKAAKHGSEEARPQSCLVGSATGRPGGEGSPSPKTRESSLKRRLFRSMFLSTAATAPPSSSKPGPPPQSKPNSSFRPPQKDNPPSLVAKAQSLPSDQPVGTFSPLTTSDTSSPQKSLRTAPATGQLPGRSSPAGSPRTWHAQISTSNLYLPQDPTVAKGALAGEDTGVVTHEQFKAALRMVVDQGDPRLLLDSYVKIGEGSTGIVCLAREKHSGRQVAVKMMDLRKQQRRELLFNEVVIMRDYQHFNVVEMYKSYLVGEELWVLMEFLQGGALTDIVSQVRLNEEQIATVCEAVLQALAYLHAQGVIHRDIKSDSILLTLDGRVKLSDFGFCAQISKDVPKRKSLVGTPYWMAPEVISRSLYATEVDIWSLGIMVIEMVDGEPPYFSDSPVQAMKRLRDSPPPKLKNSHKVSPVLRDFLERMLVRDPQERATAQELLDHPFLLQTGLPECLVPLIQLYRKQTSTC

How did the residual activity ([1]; compound 0.1 µM) turn out when `COc1ccc2c(c1)c1c3c(c4c5ccccc5n(C)c4c1n2CC(O)CN(C)C)C(=O)NC3=O` (stereo not given) was run?
The residual activity was 108%.

And the residual activity ([1]; compound 1.0 µM)?
The residual activity was 106%.

What about the residual activity ([1]; compound 10.0 µM) of the same compound?
The residual activity was 59%.

What about the residual activity ([2]; compound 0.1 µM) of the same compound?
The residual activity was 114%.

And the residual activity ([2]; compound 1.0 µM)?
Its residual activity is 110%.

And the residual activity ([2]; compound 10.0 µM)?
The residual activity was 106%.

What about the residual activity ([3]; compound 0.1 µM) of the same compound?
The residual activity was 72%.

What about the residual activity ([3]; compound 1.0 µM) of the same compound?
Its residual activity is 18%.

And the residual activity ([3]; compound 10.0 µM)?
The residual activity was 6%.

What about the residual activity ([4]; compound 0.1 µM) of the same compound?
Its residual activity is 107%.

What about the residual activity ([4]; compound 1.0 µM) of the same compound?
The residual activity was 82%.

And the residual activity ([4]; compound 10.0 µM)?
Its residual activity is 71%.

And the residual activity ([5]; compound 0.1 µM)?
The residual activity was 5%.

What about the residual activity ([5]; compound 1.0 µM) of the same compound?
The residual activity was 1%.

And the residual activity ([5]; compound 10.0 µM)?
The residual activity was 1%.

What about the residual activity ([6]; compound 0.1 µM) of the same compound?
Its residual activity is 95%.

What about the residual activity ([6]; compound 1.0 µM) of the same compound?
The residual activity was 90%.

What about the residual activity ([6]; compound 10.0 µM) of the same compound?
Its residual activity is 81%.

And the residual activity ([7]; compound 0.1 µM)?
Its residual activity is 57%.

What about the residual activity ([7]; compound 1.0 µM) of the same compound?
Its residual activity is 27%.

What about the residual activity ([7]; compound 10.0 µM) of the same compound?
Its residual activity is 10%.

What about the residual activity ([8]; compound 0.1 µM) of the same compound?
The residual activity was 93%.

What about the residual activity ([8]; compound 1.0 µM) of the same compound?
The residual activity was 68%.

What about the residual activity ([8]; compound 10.0 µM) of the same compound?
Its residual activity is 33%.

And the residual activity ([9]; compound 0.1 µM)?
Its residual activity is 94%.

And the residual activity ([9]; compound 1.0 µM)?
The residual activity was 102%.

What about the residual activity ([9]; compound 10.0 µM) of the same compound?
Its residual activity is 96%.

And the residual activity ([10]; compound 0.1 µM)?
Its residual activity is 20%.

What about the residual activity ([10]; compound 1.0 µM) of the same compound?
The residual activity was 3%.

And the residual activity ([10]; compound 10.0 µM)?
The residual activity was 2%.

What about the residual activity ([11]; compound 0.1 µM) of the same compound?
The residual activity was 56%.

What about the residual activity ([11]; compound 1.0 µM) of the same compound?
The residual activity was 13%.

What about the residual activity ([11]; compound 10.0 µM) of the same compound?
The residual activity was 4%.

And the residual activity ([12]; compound 0.1 µM)?
Its residual activity is 69%.

What about the residual activity ([12]; compound 1.0 µM) of the same compound?
Its residual activity is 25%.

What about the residual activity ([12]; compound 10.0 µM) of the same compound?
Its residual activity is 6%.

And the residual activity ([13]; compound 0.1 µM)?
The residual activity was 10%.

What about the residual activity ([13]; compound 1.0 µM) of the same compound?
The residual activity was 5%.

What about the residual activity ([13]; compound 10.0 µM) of the same compound?
Its residual activity is 5%.

And the residual activity ([14]; compound 0.1 µM)?
Its residual activity is 118%.

And the residual activity ([14]; compound 1.0 µM)?
Its residual activity is 74%.

And the residual activity ([14]; compound 10.0 µM)?
The residual activity was 62%.

What about the residual activity ([15]; compound 0.1 µM) of the same compound?
Its residual activity is 104%.

And the residual activity ([15]; compound 1.0 µM)?
Its residual activity is 95%.

What about the residual activity ([15]; compound 10.0 µM) of the same compound?
The residual activity was 63%.

And the residual activity ([16]; compound 0.1 µM)?
The residual activity was 11%.

What about the residual activity ([16]; compound 1.0 µM) of the same compound?
The residual activity was 3%.

What about the residual activity ([16]; compound 10.0 µM) of the same compound?
Its residual activity is 3%.

And the residual activity ([17]; compound 0.1 µM)?
The residual activity was 3%.

What about the residual activity ([17]; compound 1.0 µM) of the same compound?
Its residual activity is 0%.

And the residual activity ([17]; compound 10.0 µM)?
Its residual activity is 0%.

What about the residual activity ([18]; compound 0.1 µM) of the same compound?
Its residual activity is 99%.

What about the residual activity ([18]; compound 1.0 µM) of the same compound?
The residual activity was 98%.

And the residual activity ([18]; compound 10.0 µM)?
The residual activity was 79%.

And the residual activity ([19]; compound 0.1 µM)?
The residual activity was 106%.

And the residual activity ([19]; compound 1.0 µM)?
The residual activity was 106%.

And the residual activity ([19]; compound 10.0 µM)?
The residual activity was 108%.

With `Cn1nc(Nc2ccc(F)cc2)c2c(N)ncnc21` as the compound, how does the residual activity ([1]; compound 1.0 µM) read?
The residual activity was 143%.

And the residual activity ([1]; compound 10.0 µM)?
The residual activity was 136%.

What about the residual activity ([2]; compound 1.0 µM) of the same compound?
Its residual activity is 107%.

And the residual activity ([2]; compound 10.0 µM)?
Its residual activity is 110%.

And the residual activity ([3]; compound 1.0 µM)?
Its residual activity is 99%.

And the residual activity ([3]; compound 10.0 µM)?
Its residual activity is 92%.

What about the residual activity ([4]; compound 1.0 µM) of the same compound?
The residual activity was 113%.

What about the residual activity ([4]; compound 10.0 µM) of the same compound?
Its residual activity is 101%.

And the residual activity ([5]; compound 1.0 µM)?
The residual activity was 120%.

And the residual activity ([5]; compound 10.0 µM)?
The residual activity was 121%.

And the residual activity ([6]; compound 1.0 µM)?
The residual activity was 98%.

And the residual activity ([6]; compound 10.0 µM)?
The residual activity was 96%.

And the residual activity ([7]; compound 1.0 µM)?
Its residual activity is 103%.

What about the residual activity ([7]; compound 10.0 µM) of the same compound?
The residual activity was 96%.

And the residual activity ([8]; compound 1.0 µM)?
Its residual activity is 82%.

And the residual activity ([8]; compound 10.0 µM)?
Its residual activity is 79%.

And the residual activity ([9]; compound 1.0 µM)?
The residual activity was 124%.

What about the residual activity ([9]; compound 10.0 µM) of the same compound?
Its residual activity is 111%.

And the residual activity ([10]; compound 1.0 µM)?
Its residual activity is 102%.

And the residual activity ([10]; compound 10.0 µM)?
Its residual activity is 104%.

What about the residual activity ([11]; compound 1.0 µM) of the same compound?
The residual activity was 118%.

What about the residual activity ([11]; compound 10.0 µM) of the same compound?
Its residual activity is 112%.

And the residual activity ([12]; compound 1.0 µM)?
Its residual activity is 97%.

And the residual activity ([12]; compound 10.0 µM)?
The residual activity was 98%.

And the residual activity ([13]; compound 1.0 µM)?
Its residual activity is 121%.

And the residual activity ([13]; compound 10.0 µM)?
Its residual activity is 102%.

What about the residual activity ([14]; compound 1.0 µM) of the same compound?
Its residual activity is 97%.

And the residual activity ([14]; compound 10.0 µM)?
Its residual activity is 102%.

What about the residual activity ([15]; compound 1.0 µM) of the same compound?
The residual activity was 96%.

And the residual activity ([15]; compound 10.0 µM)?
The residual activity was 63%.

And the residual activity ([16]; compound 1.0 µM)?
Its residual activity is 97%.

And the residual activity ([16]; compound 10.0 µM)?
Its residual activity is 84%.

What about the residual activity ([17]; compound 1.0 µM) of the same compound?
Its residual activity is 110%.

And the residual activity ([17]; compound 10.0 µM)?
Its residual activity is 107%.

And the residual activity ([18]; compound 1.0 µM)?
Its residual activity is 92%.

What about the residual activity ([18]; compound 10.0 µM) of the same compound?
The residual activity was 94%.

And the residual activity ([19]; compound 1.0 µM)?
Its residual activity is 102%.

And the residual activity ([19]; compound 10.0 µM)?
The residual activity was 103%.
